Laboratory results from patent US8952024B2, “Herbicidal pyrimidone derivatives” (E I du Pont de Nemours and Company, priority 2009, dated 2015).

Legend:
Assay type in all cases: in vivo
[1] = test system: barnyardgrass (Echinochloa crus-galli); assay: Test A pre-/postemergence plant response
In short: (§1)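 Greenhouse trial, ~10 days. Soil (loam/sand) sprayed preemergence after seeding; emerged plants (1–2 leaf, 2–10 cm) sprayed postemergence in parallel. Response = visual injury vs untreated control, 0–100.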

corn (Zea mays) = assay: Test A pre-/postemergence plant response
In short: as §1

[2] = test system: giant foxtail (Setaria faberii); assay: Test A pre-/postemergence plant response
In short: as §1

[3] = test system: large crabgrass (Digitaria sanguinalis); assay: Test A pre-/postemergence plant response
In short: as §1

[4] = test system: morningglory (Ipomoea spp.); assay: Test A pre-/postemergence plant response
In short: as §1

[5] = test system: pigweed (Amaranthus retroflexus); assay: Test A pre-/postemergence plant response
In short: as §1

[6] = test system: velvetleaf (Abutilon theophrasti); assay: Test A pre-/postemergence plant response
In short: as §1

[7] = test system: wheat (Triticum aestivum); assay: Test A pre-/postemergence plant response
In short: as §1

[8] = test system: barnyardgrass (Echinochloa crus-galli); assay: Test B flooded paddy test; details: for Plant response rating, Flood, Barnyardgrass: 250 g ai/ha, flooded paddy test, visual rating on 0 to 100 scale (0 no effect, 100 complete control) after 13 to 15 days; for Plant response rating, Barnyardgrass: Flood (flooded paddy test), 13 to 15 days
In short: (§2)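 Greenhouse-held for 13 to 15 days, treated pots were compared visually with controls and scored 0–100 (0, no effect). Treatment had been made into paddy water kept at 3 cm above the soil, with plants at the 2-leaf stage.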

[9] = test system: ducksalad (Heteranthera limosa); assay: Test B flooded paddy test; details: for Plant response rating, Flood, Ducksalad: 250 g ai/ha, flooded paddy test, visual rating on 0 to 100 scale (0 no effect, 100 complete control) after 13 to 15 days; for Plant response rating, Ducksalad: Flood (flooded paddy test), 13 to 15 days
In short: as §2

rice (Oryza sativa) = assay: Test B flooded paddy test; details: for Plant response rating, Flood, Rice: 250 g ai/ha, flooded paddy test, visual rating on 0 to 100 scale (0 no effect, 100 complete control) after 13 to 15 days; for Plant response rating, Rice: Flood (flooded paddy test), 13 to 15 days
In short: as §2

[10] = test system: umbrella sedge (Cyperus difformis); assay: Test B flooded paddy test; details: for Plant response rating, Flood, Sedge, Umbrella: 250 g ai/ha, flooded paddy test, visual rating on 0 to 100 scale (0 no effect, 100 complete control) after 13 to 15 days; for Plant response rating, Sedge, Umbrella: Flood (flooded paddy test), 13 to 15 days
In short: as §2

[11] = Postemergence, 125 g ai/ha, visual injury, 0 to 100 scale (0 no effect, 100 complete control), approx. ten days
[12] = Postemergence, 500 g ai/ha, 0 to 100 scale, 0 = no effect, 100 = complete control, approx. ten days
[13] = Preemergence, 125 g ai/ha, 0 to 100 scale, 0 = no effect, 100 = complete control
[14] = Preemergence, 500 g ai/ha, visual injury, 0 to 100 scale (0 no effect, 100 complete control), approx. ten days
[15] = 31 g ai/ha, scale of 0 to 100 where 0 is no effect and 100 is complete control
[16] = 62 g ai/ha, scale 0 to 100, 0 is no effect, 100 is complete control
[17] = 125 g ai/ha, scale 0 to 100, 0 is no effect, 100 is complete control
[18] = Postemergence, 125 g ai/ha, 0 to 100 scale where 0 is no effect and 100 is complete control
[19] = 62 g ai/ha, scale of 0 to 100 where 0 is no effect and 100 is complete control
[20] = Postemergence, 500 g ai/ha, visual injury, 0 to 100 scale (0 no effect, 100 complete control), approx. ten days
[21] = Preemergence, 500 g ai/ha, 0 to 100 scale, 0 = no effect, 100 = complete control
[22] = Flood, 31 g ai/ha, scale 0 to 100 (0 no effect, 100 complete control)

O=C1CCCC(O)=C1C(=O)c1cnc(-c2ccccc2)n(-c2cccc(Br)c2)c1=O [Compound 38]
Barnyardgrass plant response rating [1, 11]: 60 | Plant response rating, Barnyardgrass [1, 12]: 90 | Plant response rating, Barnyardgrass [1, 13]: 10 | Plant response rating, Barnyardgrass [1, 14]: 90 | Corn plant response rating (corn (Zea mays); [11]): 0 | Plant response rating, Corn (corn (Zea mays); [12]): 60 | Plant response rating, Corn (corn (Zea mays); [13]): 0 | Plant response rating, Corn (corn (Zea mays); [14]): 30 | Foxtail, Giant plant response rating [2, 11]: 50 | Plant response rating, Foxtail, Giant [2, 12]: 90 | Plant response rating, Foxtail, Giant [2, 13]: 10 | Plant response rating, Foxtail, Giant [2, 14]: 80 | Crabgrass, Large plant response rating [3, 11]: 60 | Plant response rating, Crabgrass, Large [3, 12]: 100 | Plant response rating, Crabgrass, Large [3, 13]: 30 | Plant response rating, Crabgrass, Large [3, 14]: 100 | Morningglory plant response rating [4, 11]: 100 | Plant response rating, Morningglory [4, 12]: 100 | Plant response rating, Morningglory [4, 13]: 0 | Plant response rating, Morningglory [4, 14]: 70 | Pigweed plant response rating [5, 11]: 100 | Plant response rating, Pigweed [5, 12]: 100 | Plant response rating, Pigweed [5, 13]: 50 | Plant response rating, Pigweed [5, 14]: 100 | Velvetleaf plant response rating [6, 11]: 100 | Plant response rating, Velvetleaf [6, 12]: 100 | Plant response rating, Velvetleaf [6, 13]: 70 | Plant response rating, Velvetleaf [6, 14]: 100 | Wheat plant response rating [7, 11]: 0 | Plant response rating, Wheat [7, 12]: 40 | Plant response rating, Wheat [7, 13]: 0 | Plant response rating, Wheat [7, 14]: 20 | Plant response rating, Flood, Barnyardgrass [8]: 0 | Plant response rating, Barnyardgrass [8, 15]: 0 | Plant response rating, Barnyardgrass [8, 16]: 0 | Plant response rating, Barnyardgrass [8, 17]: 0 | Plant response rating, Flood, Ducksalad [9]: 65 | Plant response rating, Ducksalad [9, 15]: 0 | Plant response rating, Ducksalad [9, 16]: 20 | Plant response rating, Ducksalad [9, 17]: 60 | Plant response rating, Flood, Rice (rice (Oryza sativa)): 0 | Plant response rating, Rice (rice (Oryza sativa); [15]): 0 | Plant response rating, Rice (rice (Oryza sativa); [16]): 0 | Plant response rating, Rice (rice (Oryza sativa); [17]): 0 | Plant response rating, Flood, Sedge, Umbrella [10]: 40 | Plant response rating, Sedge, Umbrella [10, 15]: 0 | Plant response rating, Sedge, Umbrella [10, 16]: 0 | Plant response rating, Sedge, Umbrella [10, 17]: 30

CCCCn1c(-c2cc(F)cc(F)c2)ncc(C(=O)C2=C(O)CCCC2=O)c1=O [Compound 121]
Plant response rating, Barnyardgrass [1, 18]: 80 | Plant response rating, Barnyardgrass [1, 12]: 100 | Plant response rating, Barnyardgrass [1, 13]: 20 | Plant response rating, Barnyardgrass [1, 14]: 100 | Plant response rating, Corn (corn (Zea mays); [18]): 0 | Plant response rating, Corn (corn (Zea mays); [12]): 40 | Plant response rating, Corn (corn (Zea mays); [13]): 0 | Plant response rating, Corn (corn (Zea mays); [14]): 30 | Plant response rating, Foxtail, Giant [2, 18]: 90 | Plant response rating, Foxtail, Giant [2, 12]: 90 | Plant response rating, Foxtail, Giant [2, 13]: 80 | Plant response rating, Foxtail, Giant [2, 14]: 100 | Plant response rating, Crabgrass, Large [3, 18]: 80 | Plant response rating, Crabgrass, Large [3, 12]: 100 | Plant response rating, Crabgrass, Large [3, 13]: 90 | Plant response rating, Crabgrass, Large [3, 14]: 100 | Plant response rating, Morningglory [4, 18]: 100 | Plant response rating, Morningglory [4, 12]: 100 | Plant response rating, Morningglory [4, 13]: 0 | Plant response rating, Morningglory [4, 14]: 70 | Plant response rating, Pigweed [5, 18]: 100 | Plant response rating, Pigweed [5, 12]: 100 | Plant response rating, Pigweed [5, 13]: 80 | Plant response rating, Pigweed [5, 14]: 100 | Plant response rating, Velvetleaf [6, 18]: 100 | Plant response rating, Velvetleaf [6, 12]: 100 | Plant response rating, Velvetleaf [6, 13]: 80 | Plant response rating, Velvetleaf [6, 14]: 100 | Plant response rating, Wheat [7, 18]: 30 | Plant response rating, Wheat [7, 12]: 60 | Plant response rating, Wheat [7, 13]: 0 | Plant response rating, Wheat [7, 14]: 50 | Plant response rating, Flood, Barnyardgrass [8]: 70 | Plant response rating, Barnyardgrass [8, 19]: 30 | Plant response rating, Flood, Ducksalad [9]: 80 | Plant response rating, Ducksalad [9, 19]: 45 | Plant response rating, Flood, Rice (rice (Oryza sativa)): 55 | Plant response rating, Rice (rice (Oryza sativa); [19]): 0 | Plant response rating, Flood, Sedge, Umbrella [10]: 70 | Plant response rating, Sedge, Umbrella [10, 19]: 30

O=C1CCCC(O)=C1C(=O)c1cnc(-c2ccc(F)cc2)n(C2CCCCC2)c1=O [Compound 197]
Plant response rating, Barnyardgrass [1, 18]: 80 | Barnyardgrass plant response rating [1, 20]: 100 | Plant response rating, Barnyardgrass [1, 13]: 0 | Plant response rating, Barnyardgrass [1, 21]: 40 | Plant response rating, Corn (corn (Zea mays); [18]): 20 | Corn plant response rating (corn (Zea mays); [20]): 50 | Plant response rating, Corn (corn (Zea mays); [13]): 0 | Plant response rating, Corn (corn (Zea mays); [21]): 30 | Plant response rating, Foxtail, Giant [2, 18]: 80 | Foxtail, Giant plant response rating [2, 20]: 100 | Plant response rating, Foxtail, Giant [2, 13]: 0 | Plant response rating, Foxtail, Giant [2, 21]: 50 | Plant response rating, Crabgrass, Large [3, 18]: 70 | Crabgrass, Large plant response rating [3, 20]: 100 | Plant response rating, Crabgrass, Large [3, 13]: 0 | Plant response rating, Crabgrass, Large [3, 21]: 60 | Plant response rating, Morningglory [4, 18]: 100 | Morningglory plant response rating [4, 20]: 100 | Plant response rating, Morningglory [4, 13]: 0 | Plant response rating, Morningglory [4, 21]: 60 | Plant response rating, Pigweed [5, 18]: 100 | Pigweed plant response rating [5, 20]: 100 | Plant response rating, Pigweed [5, 13]: 20 | Plant response rating, Pigweed [5, 21]: 100 | Plant response rating, Velvetleaf [6, 18]: 100 | Velvetleaf plant response rating [6, 20]: 100 | Plant response rating, Velvetleaf [6, 13]: 40 | Plant response rating, Velvetleaf [6, 21]: 90 | Plant response rating, Wheat [7, 18]: 0 | Wheat plant response rating [7, 20]: 0 | Plant response rating, Wheat [7, 13]: 0 | Plant response rating, Wheat [7, 21]: 20 | Plant response rating, Flood, Barnyardgrass [8]: 30 | Plant response rating, Barnyardgrass [8, 19]: 0 | Plant response rating, Barnyardgrass [8, 17]: 20 | Barnyardgrass plant response rating [8, 22]: 0 | Plant response rating, Flood, Ducksalad [9]: 85 | Plant response rating, Ducksalad [9, 19]: 65 | Plant response rating, Ducksalad [9, 17]: 80 | Ducksalad plant response rating [9, 22]: 65 | Plant response rating, Flood, Rice (rice (Oryza sativa)): 45 | Plant response rating, Rice (rice (Oryza sativa); [19]): 0 | Plant response rating, Rice (rice (Oryza sativa); [17]): 30 | Rice plant response rating (rice (Oryza sativa); [22]): 0 | Plant response rating, Flood, Sedge, Umbrella [10]: 85 | Plant response rating, Sedge, Umbrella [10, 19]: 70 | Plant response rating, Sedge, Umbrella [10, 17]: 75 | Sedge, Umbrella plant response rating [10, 22]: 65
